Data reported in publication PMC5668067, “Phase I dose-escalation study of the c-Met tyrosine kinase inhibitor SAR125844 in Asian patients with advanced solid tumors, including patients with MET-amplified gastric cancer” (Oncotarget, 2017).
Read-outs that look alike come from different tables or passages of the source.

Columns and labels:
[1] = test system: solid tumors, including MET-amplified gastric cancer; experiment: phase I antitumor activity (RECIST 1.1); assay type: in vivo, human
Method: Tumor response was evaluated by the Response Evaluation Criteria In Solid Tumors version 1.1, which define complete response as disappearance of all target lesions, partial response and progressive disease as a minimally 30% decrease or 20% increase, respectively, in the sum of diameters of target lesions, and stable disease as neither sufficient shrinkage to qualify for partial response nor sufficient increase to qualify for progressive disease. Tumor burden was assessed from computerized tomography or magnetic resonance imaging scans performed at baseline, at the end of cycle 1, and every 8 weeks thereafter. Patients evaluable for efficacy received at least one cycle of SAR, with a minimum of two infusions, and had undergone efficacy assessment at baseline and once or more after that.
In the dose-expansion cohort, MET amplification in tumor tissue was evaluated by a FISH assay. A tumor was considered MET amplified if ≥ 10% of cells had more than four gene copies of MET and the MET:CEP7 ratio was ≥ 2. Total c-MET protein expression was evaluated by immunohistochemistry, calculating the percentage of tumor cells with an immunohistochemistry score of 2+ or 3+ membrane staining. […] Immunohistochemistry was performed on fresh or archival tumor tissue.

c-Met kinase = target: c-Met kinase; set-up: method as in PMID 25504634; conditions: cited from earlier work
[2] = phase I pharmacokinetics in blood (dried blood spot, LC-MS/MS, noncompartmental analysis); assay type: in vivo, human; conditions: for fold increase in AUC0–168: 2.19-fold increase in dose (260 to 570 mg/m^2); for Cmax: blood; for AUC(0-t): read-out: AUC0–168
Method: Blood samples for pharmacokinetic analysis were acquired using dried blood-spot technology on days 1 and 22 of cycle 1 at several time points before, during, and after infusion (up to 168 hours after administration). Drug concentrations were determined by a validated method of liquid chromatography and tandem mass spectrometry (limit of quantification 2 ng/mL). Pharmacokinetic parameters were calculated using a noncompartmental analysis and included the maximum observed blood concentration (Cmax), AUC from 0 to infinity, AUC0–168, CL, CL after repeated administrations (CLss), volume of distribution at steady state (Vss), and the half-life associated with the terminal slope (t1/2z).

[3] = test system: patients with solid tumors; set-up: method as in ref 9 = [9]; 9 Angevin E Spitaleri G Hollebecque A De Pas T Soria JC Harnois M Mazuir F Assadourian S De Marinis F A first-in-human (FIH) phase I study of SAR125844, a novel selective MET kinase inhibitor, in pati; conditions: cited from earlier work
[4] = dose-expansion cohort (N = 19), 570 mg/m^2
[5] = human, whole blood (dried blood spot), intravenous, 260 mg/m2, 260 mg/m^2, cycle 1 Day 22, N = 2, mean
[6] = human, whole blood (dried blood spot), intravenous, 340 mg/m2, 340 mg/m^2, cycle 1 Day 1, N = 2, mean
[7] = human, whole blood (dried blood spot), intravenous, 340 mg/m2, 340 mg/m^2, cycle 1 Day 22, N = 3, mean ± SD
[8] = human, whole blood (dried blood spot), intravenous, 440 mg/m2, 440 mg/m^2, cycle 1 Day 1, n = 2, mean
[9] = human, whole blood (dried blood spot), intravenous, 440 mg/m2, 440 mg/m^2, cycle 1 Day 22, N = 3, mean ± SD
[10] = human, whole blood (dried blood spot), intravenous, 570 mg/m2, 570 mg/m^2, cycle 1 Day 1, n = 20, mean ± SD
[11] = human, whole blood (dried blood spot), intravenous, 570 mg/m2, 570 mg/m^2, cycle 1 Day 22, N = 17, mean ± SD

With `O=C(NCCN1CCOCC1)Nc1nc2ccc(Sc3nnc4ccc(-c5ccc(F)cc5)nn34)cc2s1` [SAR125844] the “patients with early disease progression leading to treatment discontinuation in cycle 1” value ([1]; dose-escalation cohort) was 11 patients, the objective responses ([1]; dose-escalation cohort (unselected population, N = 19)) was “No objective responses” and the “median time to tumor progression” value ([1]; dose-escalation cohort, 340 mg/m^2) was 0.9 months. The “median time to tumor progression” value ([1]; dose-escalation cohort, 440 mg/m^2) was 1.7 months, the “patients with stable disease” value ([1]; dose-escalation cohort, after 1 month of treatment) was “seven” and the “patients with stable disease” value ([1]; dose-escalation cohort, after 1 month of treatment, listed as SAR) was 7 patients. For the same molecule, the “patients with progressive disease” value [1, 4] was 10 patients, the “patients with stable disease” value [1, 4] was “seven” and the “confirmed partial response / objective response rate” value ([1]; dose-expansion cohort, MET-amplified tumors, 570 mg/m^2, two of 19 patients) was 10.5%. The “patients with unconfirmed partial response” value ([1]; dose-expansion cohort, gastric cancer) was “one”, the “median time to tumor progression” value ([1]; dose-expansion cohort, median (range)) was 0.92 (0.4–9) months and the “median time to tumor progression” value ([1]; gastric cancer subpopulation of dose-expansion cohort, median (range)) was 1.18 (0.4–9) months. For the same molecule, the “overall response rate (partial response rate)” value ([1]; gastric cancer subpopulation with MET amplification, two of 14 patients) was 14.3%, the IC50 (c-Met kinase; read-out: half-maximal inhibitory concentration) was 4.2 nM and the Ki (c-Met kinase; read-out: inhibitory constant) was 2.8 nM. For the same molecule, the “fold increase in AUC0–168” value ([2]; day 1) was 3.00 fold, the “fold increase in AUC0–168” value ([2]; day 22) was 2.69 fold and the “accumulation between days 1 and 22” value ([2]; four repeated once-weekly infusions) was “no accumulation”. It also gave a Cmax ([2]; human, whole blood (dried blood spot), intravenous, 260 mg/m2, 260 mg/m^2, cycle 1 Day 1, N = 6, mean ± SD) of 4140 ± 1070 ng/mL, an AUC(0-t) ([2]; human, whole blood (dried blood spot), intravenous, 260 mg/m2, 260 mg/m^2, cycle 1 Day 1, n = 5, mean ± SD) of 11800 ± 2960 ng·h/mL and a clearance ([2]; human, whole blood (dried blood spot), intravenous, 260 mg/m2, 260 mg/m^2, cycle 1 Day 1, n = 5, mean ± SD, read-out: CL (converted)) of 608 mL/min. It also gave a Vd ([2]; human, whole blood (dried blood spot), intravenous, 260 mg/m2, 260 mg/m^2, cycle 1 Day 1, n = 5, mean ± SD, read-out: Vss) of 232 ± 57.5 L, a half-life ([2]; human, whole blood (dried blood spot), intravenous, 260 mg/m2, 260 mg/m^2, cycle 1 Day 1, n = 5, mean ± SD, read-out: t1/2z (converted)) of 756 ± 363 min and an AUC [2, 5] of 12600 ng·h/mL. For the same molecule, the Cmax [2, 5] was 3550 ng/mL, the AUC(0-t) [2, 5] was 12700 ng·h/mL and the clearance ([2]; human, whole blood (dried blood spot), intravenous, 260 mg/m2, 260 mg/m^2, cycle 1 Day 22, N = 2, mean, read-out: CL (converted)) was 533 mL/min. It also gave a Vd ([2]; human, whole blood (dried blood spot), intravenous, 260 mg/m2, 260 mg/m^2, cycle 1 Day 22, N = 2, mean, read-out: Vss) of 186 L, a half-life ([2]; human, whole blood (dried blood spot), intravenous, 260 mg/m2, 260 mg/m^2, cycle 1 Day 22, N = 2, mean, read-out: t1/2z (converted)) of 756 min and an AUC ([2]; human, whole blood (dried blood spot), intravenous, 260 mg/m2, AUC from 0 to infinity, 260 mg/m^2, cycle 1 Day 1, n = 5, mean ± SD) of 11800 ± 2950 ng·h/mL. The AUC [2, 6] was 16400 ng·h/mL, the Cmax [2, 6] was 4290 ng/mL and the AUC(0-t) [2, 6] was 16400 ng·h/mL. The clearance ([2]; human, whole blood (dried blood spot), intravenous, 340 mg/m2, 340 mg/m^2, cycle 1 Day 1, N = 2, mean, read-out: CL (converted)) was 565 mL/min, the Vd ([2]; human, whole blood (dried blood spot), intravenous, 340 mg/m2, 340 mg/m^2, cycle 1 Day 1, N = 2, mean, read-out: Vss) was 246 L and the half-life ([2]; human, whole blood (dried blood spot), intravenous, 340 mg/m2, 340 mg/m^2, cycle 1 Day 1, N = 2, mean, read-out: t1/2z (converted)) was 774 min. For the same molecule, the AUC [2, 7] was 16500 ± 2390 ng·h/mL, the Cmax [2, 7] was 4700 ± 976 ng/mL and the AUC(0-t) [2, 7] was 16500 ± 2390 ng·h/mL. For the same molecule, the clearance ([2]; human, whole blood (dried blood spot), intravenous, 340 mg/m2, 340 mg/m^2, cycle 1 Day 22, N = 3, mean ± SD, read-out: CL (converted)) was 557 mL/min, the Vd ([2]; human, whole blood (dried blood spot), intravenous, 340 mg/m2, 340 mg/m^2, cycle 1 Day 22, N = 3, mean ± SD, read-out: Vss) was 291 ± 52.6 L and the half-life ([2]; human, whole blood (dried blood spot), intravenous, 340 mg/m2, 340 mg/m^2, cycle 1 Day 22, N = 3, mean ± SD, read-out: t1/2z (converted)) was 1240 ± 281 min. It also gave a Cmax ([2]; human, whole blood (dried blood spot), intravenous, 440 mg/m2, 440 mg/m^2, cycle 1 Day 1, N = 3, mean ± SD) of 6390 ± 1010 ng/mL, an AUC [2, 8] of 22000 ng·h/mL and an AUC(0-t) [2, 8] of 22100 ng·h/mL. The clearance ([2]; human, whole blood (dried blood spot), intravenous, 440 mg/m2, 440 mg/m^2, cycle 1 Day 1, n = 2, mean, read-out: CL (converted)) was 530 mL/min, the Vd ([2]; human, whole blood (dried blood spot), intravenous, 440 mg/m2, 440 mg/m^2, cycle 1 Day 1, n = 2, mean, read-out: Vss) was 202 L and the half-life ([2]; human, whole blood (dried blood spot), intravenous, 440 mg/m2, 440 mg/m^2, cycle 1 Day 1, n = 2, mean, read-out: t1/2z (converted)) was 726 min. The AUC [2, 9] was 25400 ± 5300 ng·h/mL, the Cmax [2, 9] was 5840 ± 1420 ng/mL and the AUC(0-t) [2, 9] was 25300 ± 5220 ng·h/mL. For the same molecule, the clearance ([2]; human, whole blood (dried blood spot), intravenous, 440 mg/m2, 440 mg/m^2, cycle 1 Day 22, N = 3, mean ± SD, read-out: CL (converted)) was 503 mL/min, the Vd ([2]; human, whole blood (dried blood spot), intravenous, 440 mg/m2, 440 mg/m^2, cycle 1 Day 22, N = 3, mean ± SD, read-out: Vss) was 490 ± 366 L and the half-life ([2]; human, whole blood (dried blood spot), intravenous, 440 mg/m2, 440 mg/m^2, cycle 1 Day 22, N = 3, mean ± SD, read-out: t1/2z (converted)) was 1650 ± 494 min. It also gave a Cmax ([2]; human, whole blood (dried blood spot), intravenous, 570 mg/m2, 570 mg/m^2, cycle 1 Day 1, N = 21, mean ± SD) of 6570 ± 1680 ng/mL, an AUC [2, 10] of 36200 ± 11800 ng·h/mL and an AUC(0-t) [2, 10] of 36100 ± 11800 ng·h/mL. The clearance ([2]; human, whole blood (dried blood spot), intravenous, 570 mg/m2, 570 mg/m^2, cycle 1 Day 1, n = 20, mean ± SD, read-out: CL (converted)) was 463 mL/min, the Vd ([2]; human, whole blood (dried blood spot), intravenous, 570 mg/m2, 570 mg/m^2, cycle 1 Day 1, n = 20, mean ± SD, read-out: Vss) was 241 ± 55.3 L and the half-life ([2]; human, whole blood (dried blood spot), intravenous, 570 mg/m2, 570 mg/m^2, cycle 1 Day 1, n = 20, mean ± SD, read-out: t1/2z (converted)) was 1370 ± 568 min. For the same molecule, the AUC [2, 11] was 35100 ± 15000 ng·h/mL, the Cmax [2, 11] was 6330 ± 1270 ng/mL and the AUC(0-t) [2, 11] was 35100 ± 14900 ng·h/mL. It also gave a clearance ([2]; human, whole blood (dried blood spot), intravenous, 570 mg/m2, 570 mg/m^2, cycle 1 Day 22, N = 17, mean ± SD, read-out: CL (converted)) of 482 mL/min, a Vd ([2]; human, whole blood (dried blood spot), intravenous, 570 mg/m2, 570 mg/m^2, cycle 1 Day 22, N = 17, mean ± SD, read-out: Vss) of 287 ± 105 L and a half-life ([2]; human, whole blood (dried blood spot), intravenous, 570 mg/m2, 570 mg/m^2, cycle 1 Day 22, N = 17, mean ± SD, read-out: t1/2z (converted)) of 1270 ± 296 min. For the same molecule, the half-life ([2]; human, whole blood (dried blood spot), intravenous, 570 mg/m2, at the RD (570 mg/m^2), read-out: elimination half-life (converted)) was ~1260 min, the Vd ([2]; human, whole blood (dried blood spot), intravenous, 570 mg/m2, at the RD (570 mg/m^2), read-out: volume of distribution at steady state) was ~253 L and the clearance ([2]; qualitative) was “medium”. For the same molecule, the “effect of dose on total body clearance (CL)” value ([2]; statistical analysis, P = 0.25) was “no significant effect”, the “effect of dose on CL at steady state (CLs)” value ([2]; statistical analysis, P = 0.79) was “no significant effect” and the “recommended dose (RD)” value ([3]; first-in-human study, Western countries, intravenously) was 570 mg/m^2 per week. For the same molecule, the tolerability profile ([3]; first-in-human study, doses 50‒740 mg/m^2) was “acceptable tolerability profile” and the antitumor activity ([3]; one patient with lung adenocarcinoma and MET amplification) was “Preliminary evidence of antitumor activity”.
